Experimental data: patent US20210128547A1, “AGGRESSIVE LIPID LOWERING THERAPY IN CORONARY ARTERY DISEASE” (priority 2018, published 2021)

Tests used:
patients with stable CAD = test: Randomized open-label blinded-endpoint phase 4 trial, pitavastatin 4 mg/day vs 1 mg/day (Example 1); format: in vivo, human (Japanese patients)
Protocol: This study was a prospective, multicenter, randomized, open-label, blinded-endpoint, physician-initiated phase 4 trial designed to investigate whether high-dose statin therapy could reduce CV events in patients with stable CAD as compared with low-dose statin therapy. We hypothesized that aggressive lipid lowering treatment with pitavastatin 4 mg/day would reduce the incidence of the composite endpoint comprised of CV death, non-fatal myocardial infarction (MI), non-fatal ischemic stroke, and unstable angina requiring emergency hospitalization. The control group received pitavastatin 1 mg/day.
Men and women aged 20 to 80 years with clinically evident stable CAD and elevated LDL-C were eligible for this study. CAD was defined as 1) previous ACS, such as acute myocardial infarction or unstable angina; 2) a previous coronary revascularization procedure (PCI or coronary artery bypass grafting (“CABG”)); or 3) atherosclerotic CAD detected by coronary artery angiography with at least 75% stenosis in major epicardial coronary arteries (American Heart Association classification). (30) Patients with elevated LDL-C at entry were defined as (1) patients not receiving chronic lipid-lowering therapy with LDL-C≥140 mg/dL, (2) patients with LDL-C≥100 mg/dL and considered by the attending physician to need lipid-lowering therapy, or (3) patients being treated with lipid-lowering therapy.
Exclusion criteria included (1) any planned coronary revascularization procedure, (2) active malignancy, (3) contraindication for pitavastatin (hypersensitivity to pitavastatin, severe liver disease or hepatic dysfunction, concurrent cyclosporine use, or suspected or confirmed pregnancy or current breastfeeding), (4) severe congestive heart failure (ejection fraction <30% or NYHA class ≥3), (5) current hemodialysis, (6) familial hypercholesterolemia, (7) current participation in another clinical trial, (8) current use of any prohibited drug (lipid-lowering drug other than pitavastatin) that could not be discontinued during the study, and (9) any other finding that would make the patient unsuitable for this study in the opinion of the investigators.
Participants were recruited at 733 hospitals in Japan. During screening visits, informed consent and baseline medical history were obtained, and a clinical examination and laboratory testing were performed. Blood samples were collected to determine fasting lipid levels and the patient's standard clinical profile. After discontinuation of all previous lipid-lowering therapies, all eligible patients started receiving treatment with pitavastatin 1 mg/day on an open-label basis for at least 1 month (run-in period). At the end of the run-in period (week 0), those patients with LDL-C levels below 120 mg/dL, measured by a central laboratory using Friedwald's formula, were eligible for randomization. Patients with prior ACS or coronary revascularization could be randomized beyond 3 months after the index event. Randomization was not allowed for patients with poor adherence (less than 50%) for the study drug during the run-in period or for patients with the primary endpoint events during the run-in period.
Patients were randomized in a 1:1 ratio to either pitavastatin 4 mg or pitavastatin 1 mg once daily. Randomized treatment assignment was stratified by 5 factors: 1) institution, 2) prior statin use, 3) age (<65 or ≤65), 4) diabetes, and 5) sex. Patients were to be followed for 3 years, and study visits were scheduled at 6 months for the first visit and every year thereafter. At each visit, information on vital signs, clinical endpoints, adverse events, and concurrent medication was collected. In addition, physical examinations and electrocardiograms were performed and blood specimens were collected at 6 months and every 12 months thereafter for lipid and other laboratory tests. […]

[1] = 4 mg of pitavastatin; cited from earlier work

Which “incidence rates of individual CV events: death from any cause, myocardial infarction, and coronary revascularization” value (patients with stable CAD; 1 mg and 4 mg pitavastatin groups, FIG. 8) does the source give for `O=C(O)C[C@H](O)C[C@H](O)/C=C/c1c(C2CC2)nc2ccccc2c1-c1ccc(F)cc1` [pitavastatin] here?
The value was “positive”.

And the LDL-C (patients with stable CAD; patients converted from 1 mg dose to 4 mg dose of pitavastatin, FIG. 2)?
The LDL-C was “statistically significant reduction”.

What about the HDL-C (patients with stable CAD; patients converted from 1 mg dose to 4 mg dose of pitavastatin, FIG. 3) of the same compound?
Its HDL-C is “numerically superior increase”.

And the TG (patients with stable CAD; patients converted from 1 mg dose to 4 mg dose of pitavastatin, FIG. 4)?
Its TG is “statistically significant reduction”.

What about the hs-CGP (patients with stable CAD; patients converted from 1 mg dose to 4 mg dose of pitavastatin, FIG. 5) of the same compound?
The hs-CGP was “statistically significant reduction”.

And the “primary clinical endpoint (composite of CV death, MI, ischemic stroke and UA)” value (patients with stable CAD; patients converted from 1 mg dose to 4 mg dose of pitavastatin, FIG. 6)?
Its value is “statistically significant reduction”.

What about the “secondary clinical endpoint (primary endpoint+coronary revascularization)” value (patients with stable CAD; patients converted from 1 mg dose to 4 mg dose of pitavastatin, FIG. 7) of the same compound?
The value was “statistically significant reduction”.

And the “effect of LDL-C status (≥95 mg/dL or <95 mg/dL) on incidence rates for the primary endpoint” value (patients with stable CAD; subgroup analysis, 1 mg vs 4 mg pitavastatin, FIG. 9)?
The value was “did not affect the results”.

And the “reduction of LDL-C from baseline” value [1]?
Its value is 42.9%.
